Results published in article PMC7145665, “A pre-catalytic non-covalent step governs DNA polymerase β fidelity” (Nucleic Acids Research, 2019).

Assays:
K289M pol β = target: T1, K289M pol β (Homo sapiens, UniProt P06746, K289M); assay: Single turnover polymerase activity (rapid-quench), K289M pol β; format: biochemical; conditions: for Specificity (kpol/KD) / kpol / Kd: templating base C; for Kd: apparent dNTP dissociation constant; for D kpol (c/i): kpol(correct)/kpol(incorrect) / D KD (i/c): KD(incorrect)/KD(correct): dGTP correct, dCTP incorrect
T1 construct: made in house
Experimental: (§1) A solution containing 50 nM DNA and 200 nM polymerase was rapidly mixed with varying concentrations of dNTP at 37 °C in 50 mM Tris pH 8.0, 20 mM NaCl, 10 mM MgCl2, 2 mM DTT and 10% glycerol using a KinTek rapid-quench flow apparatus. Reactions were quenched with EDTA and the product was separated from the initial reactant on a 20% polyacrylamide gel containing 8 M urea. Rate of phosphodiester bond formation (kpol) and the apparent dNTP dissociation constant (KD) were extracted as previously reported ([16]). Fidelity was calculated using the catalytic specificity (kpol/KD) for correct (dGTP) and incorrect (dCTP): (kpol/KD)correct/(kpol/KD) incorrect ([37]).

WT pol β = target: T2, WT pol β (Homo sapiens, UniProt P06746); assay: Single turnover polymerase activity (rapid-quench), WT pol β; format: biochemical; conditions: for Specificity (kpol/KD) / kpol / Kd: templating base C; for Kd: apparent dNTP dissociation constant; for D kpol (c/i): kpol(correct)/kpol(incorrect) / D KD (i/c): KD(incorrect)/KD(correct): dGTP correct, dCTP incorrect
T2 construct: made in house
Experimental: as §1

[1] = parameters: method as in earlier work; conditions: pKa4 of the leaving group (β,γ-bridging group modified) ref 19, 22, 23; cited from earlier work
[2] = APC in Control sequence, listed as O
[3] = Control in APC sequence, listed as O

Row | Specificity (kpol/KD) (K289M pol β; APC in Control sequence) [M⁻¹ s⁻¹] | kpol (K289M pol β; APC in Control sequence) [s⁻¹] | Specificity (kpol/KD) (K289M pol β; APC sequence) [M⁻¹ s⁻¹] | kpol (K289M pol β; APC sequence) [s⁻¹] | Specificity (kpol/KD) (K289M pol β; Control in APC sequence) [M⁻¹ s⁻¹] | kpol (K289M pol β; Control in APC sequence) [s⁻¹] | Specificity (kpol/KD) (K289M pol β; Control sequence) [M⁻¹ s⁻¹] | kpol (K289M pol β; Control sequence) [s⁻¹] | Kd (K289M pol β; APC in Control sequence) [µM] | Kd (K289M pol β; APC sequence) [µM] | Kd (K289M pol β; Control in APC sequence) [µM] | Kd (K289M pol β; Control sequence) [µM] | kpol (WT pol β; APC in Control sequence) [s⁻¹] | kpol (WT pol β; APC sequence) [s⁻¹] | kpol (WT pol β; Control in APC sequence) [s⁻¹] | kpol (WT pol β; Control sequence) [s⁻¹] | Kd (WT pol β; APC in Control sequence) [µM] | Kd (WT pol β; APC sequence) [µM] | Kd (WT pol β; Control in APC sequence) [µM] | Kd (WT pol β; Control sequence) [µM] | SMILES | other results
1 | 250000 | 1.17 | 410000 | 0.70 | 380000 | 0.61 | 260000 | 0.58 | 4.75 | 1.7 | 1.6 | 2.2 | 6.30 | 9.00 | 3.10 | 2.20 | 6.9 | 7.1 | 2.2 | 0.5 | Nc1nc2c(ncn2[C@H]2C[C@H](O)[C@@H](COP(=O)(O)OP(=O)(O)CP(=O)(O)O)O2)c(=O)[nH]1 [CH2] | Specificity (kpol/KD) (WT pol β; APC in Control sequence): 900000 M⁻¹ s⁻¹; Specificity (kpol/KD) (WT pol β; APC sequence): 1.3e+06 M⁻¹ s⁻¹; Specificity (kpol/KD) (WT pol β; Control in APC sequence): 1.4e+06 M⁻¹ s⁻¹; Specificity (kpol/KD) (WT pol β; Control sequence): 4.3e+06 M⁻¹ s⁻¹
2 | 1.31e+06 | 1.36 | 560000 | 0.90 | 1.25e+06 | 1.50 | 1.15e+06 | 1.50 | 1.04 | 1.6 | 1.2 | 1.3 | 25.1 | 36.4 | 19.9 | 10.2 | 5.2 | 7.5 | 2.2 | 4.2 | Nc1nc2c(ncn2C2CC(O)C(COP(=O)(O)OP(=O)(O)C(F)P(=O)(O)O)O2)c(=O)[nH]1 (mixture of isomers) [CHF] | Specificity (kpol/KD) (WT pol β; APC in Control sequence): 4.8e+06 M⁻¹ s⁻¹; Specificity (kpol/KD) (WT pol β; APC sequence): 4.9e+06 M⁻¹ s⁻¹; Specificity (kpol/KD) (WT pol β; Control in APC sequence): 9e+06 M⁻¹ s⁻¹; Specificity (kpol/KD) (WT pol β; Control sequence): 2.4e+06 M⁻¹ s⁻¹
3 | 1e+06 | 1.50 | 690000 | 0.90 | 1.37e+06 | – | 1.54e+06 | 1.52 | 1.5 | 1.3 | 1 | 1 | 28.5 | 35.5 | 22.1 | 12.6 | 3.5 | 2.3 | 1.7 | 2 | Nc1nc2c(ncn2[C@H]2C[C@H](O)[C@@H](COP(=O)(O)OP(=O)(O)OP(=O)(O)O)O2)c(=O)[nH]1 [dGTP] | kpol (K289M pol β; [2]): 1.53 s⁻¹; D kpol (c/i): kpol(correct)/kpol(incorrect) (K289M pol β; APC in Control sequence): 30; D kpol (c/i): kpol(correct)/kpol(incorrect) (K289M pol β; APC sequence): 18; kpol (K289M pol β; [3]): 1.42 s⁻¹; D kpol (c/i): kpol(correct)/kpol(incorrect) (K289M pol β; Control in APC sequence): 74; D kpol (c/i): kpol(correct)/kpol(incorrect) (K289M pol β; Control sequence): 76; Kd (K289M pol β; [2]): 1.53 µM; Kd (K289M pol β; [3]): 1.04 µM; Kd (K289M pol β; Control sequence, listed as O): 0.99 µM; pKa4 [1]: 8.9; Specificity (kpol/KD) (WT pol β; APC in Control sequence): 8.1e+06 M⁻¹ s⁻¹; D kpol (c/i): kpol(correct)/kpol(incorrect) (WT pol β; APC in Control sequence): 750; Specificity (kpol/KD) (WT pol β; APC sequence): 1.54e+07 M⁻¹ s⁻¹; D kpol (c/i): kpol(correct)/kpol(incorrect) (WT pol β; APC sequence): 161; Specificity (kpol/KD) (WT pol β; Control in APC sequence): 1.3e+07 M⁻¹ s⁻¹; D kpol (c/i): kpol(correct)/kpol(incorrect) (WT pol β; Control in APC sequence): 737; Specificity (kpol/KD) (WT pol β; Control sequence): 6.3e+06 M⁻¹ s⁻¹; D kpol (c/i): kpol(correct)/kpol(incorrect) (WT pol β; Control sequence): 194
4 | 140000 | 1.37 | 400000 | 0.80 | 160000 | 1.01 | 410000 | 1.18 | 10 | 2 | 6.5 | 2.85 | 21.7 | 20.3 | 11.9 | 5.90 | 7.5 | 7.8 | 5.6 | 0.5 | Nc1nc2c(ncn2C2CC(O)C(COP(=O)(O)OP(=O)(O)C(Cl)P(=O)(O)O)O2)c(=O)[nH]1 (mixture of isomers) [CHCl] | Specificity (kpol/KD) (WT pol β; APC in Control sequence): 2.9e+06 M⁻¹ s⁻¹; Specificity (kpol/KD) (WT pol β; APC sequence): 2.6e+06 M⁻¹ s⁻¹; Specificity (kpol/KD) (WT pol β; Control in APC sequence): 2.1e+06 M⁻¹ s⁻¹; Specificity (kpol/KD) (WT pol β; Control sequence): 1.18e+07 M⁻¹ s⁻¹
5 | – | 0.05 | – | 0.05 | – | 0.02 | – | 0.02 | 766 | 267 | 758 | 778 | 0.04 | 0.22 | 0.03 | 0.07 | 389 | 340 | 456 | 1280 | Nc1ccn([C@H]2C[C@H](O)[C@@H](COP(=O)(O)OP(=O)(O)OP(=O)(O)O)O2)c(=O)n1 [dCTP] | D KD (i/c): KD(incorrect)/KD(correct) (K289M pol β; APC in Control sequence): 511; D KD (i/c): KD(incorrect)/KD(correct) (K289M pol β; APC sequence): 205; D KD (i/c): KD(incorrect)/KD(correct) (K289M pol β; Control in APC sequence): 758; D KD (i/c): KD(incorrect)/KD(correct) (K289M pol β; Control sequence): 778; D KD (i/c): KD(incorrect)/KD(correct) (WT pol β; APC in Control sequence): 111; D KD (i/c): KD(incorrect)/KD(correct) (WT pol β; APC sequence): 148; D KD (i/c): KD(incorrect)/KD(correct) (WT pol β; Control in APC sequence): 268; D KD (i/c): KD(incorrect)/KD(correct) (WT pol β; Control sequence): 639
